Consider 15 compounds from ChEMBL document CHEMBL4417631, “Oral peptide inhibitors of interleukin-23 receptor and their use to treat inflammatory bowel diseases” (2017).

*1 amine or outer side, *2 acyl side, *3 side chain or, on linkers, in order; H or OH if unused. Where a SMILES comes first, the peptide text is derived from it. Bridges are numbered along the chain shown (N, C = ends). [ ]: non-standard residue; d: D form. Abu(4-yl) = O=C([C@H](CC[*:3])N[*:1])[*:2]; Pen = CC(C)(S)[C@H](N)C(=O)O; hLeu = CC(C)CC[C@H](N)C(=O)O A value given as a limit tells only on which side of the number the result lay.

The term IC50 denotes the point on the concentration scale where inhibition reaches its midpoint. The half-life is the time needed for the level to fall by half in the phase considered. Low values mean fast loss, high ones slow loss.

Data set [1] deals with T1, Interleukin-23 receptor (Homo sapiens, UniProt Q5VWK5).
T1 sequence (Q5VWK5 whole entry): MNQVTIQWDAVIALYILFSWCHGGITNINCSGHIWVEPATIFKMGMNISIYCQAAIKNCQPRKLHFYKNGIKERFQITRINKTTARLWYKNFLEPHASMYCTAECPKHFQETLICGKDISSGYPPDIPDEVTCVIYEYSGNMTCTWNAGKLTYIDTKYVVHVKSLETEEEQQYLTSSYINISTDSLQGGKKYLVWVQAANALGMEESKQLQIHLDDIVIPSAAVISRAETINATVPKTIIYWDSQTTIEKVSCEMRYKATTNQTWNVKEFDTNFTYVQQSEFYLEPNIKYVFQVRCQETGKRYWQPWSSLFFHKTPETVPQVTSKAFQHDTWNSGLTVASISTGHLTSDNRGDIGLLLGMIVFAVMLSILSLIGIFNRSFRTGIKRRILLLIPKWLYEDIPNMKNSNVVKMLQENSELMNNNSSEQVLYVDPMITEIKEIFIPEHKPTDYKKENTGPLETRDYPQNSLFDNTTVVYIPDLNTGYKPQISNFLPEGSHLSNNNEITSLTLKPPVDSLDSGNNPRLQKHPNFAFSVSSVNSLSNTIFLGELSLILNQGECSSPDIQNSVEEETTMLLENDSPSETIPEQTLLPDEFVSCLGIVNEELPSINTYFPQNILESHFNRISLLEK
Briefly: Inhibition of interleukin-23 binding to human interleukin-23 receptor incubated for 2 hrs by competitive binding ELISA.

A short description of data set [2]: Half life in simulated intestinal fluid at 20 uM by LC-MS/MS analysis. Format: ADME.
For data set [3], the target named is T1, Interleukin-23 receptor. Briefly: Inhibition of interleukin-23 receptor in human DB cells assessed as reduction in IL-23-stimulated STAT3 phosphorylation incubated for 30 mins by HTRF assay. Format: cell-based. A general note: Time-resolved FRET reads energy transfer from a long-lived donor to a nearby acceptor.

Turning to `CC(=O)N[C@H]1CCSC[C@H](C(=O)N[C@@H](Cc2ccc(O)cc2)C(=O)N[C@@H](Cc2c[nH]c3ccccc23)C(=O)N[C@@H](CCC(C)C)C(=O)N[C@@H](CCC(=O)O)C(=O)N[C@@H](CC(N)=O)C(=O)NCC(N)=O)NC(=O)[C@H](CCC(N)=O)NC(=O)[C@H](Cc2c[nH]c3ccccc23)NC(=O)[C@H]([C@@H](C)O)NC(=O)[C@H](CCC(N)=O)NC1=O`, at Interleukin-23 receptor [1], the IC50 is greater than 1 µM. This compound also returned a half-life at 20 µM in data set [2] of 1 to 2 h.

`CC(=O)N[C@H](C(=O)N[C@@H](CCC(N)=O)C(=O)N[C@H](C(=O)N[C@@H](Cc1c[nH]c2ccccc12)C(=O)N[C@@H](CCC(N)=O)C(=O)N[C@H](C(=O)N[C@@H](Cc1ccc(O)cc1)C(=O)N[C@@H](Cc1c[nH]c2ccccc12)C(=O)N[C@H](CC(N)=O)C(=O)N[C@@H](CCC(=O)O)C(=O)N[C@@H](CC(N)=O)C(=O)NCC(N)=O)C(C)(C)S)[C@@H](C)O)C(C)(C)S` registered an IC50 on Interleukin-23 receptor [1] of 1 to 10 µM. Further, the half-life at 20 µM in data set [2] was 3 to 6 h.

`CC(=O)NC[C@H](NC(=O)[C@H](CCCN)NC(=O)[C@H](Cc1ccc2ccccc2c1)NC(=O)[C@H](Cc1ccc(OCCN)cc1)NC(=O)[C@@H]1CSCC[C@H](NC(C)=O)C(=O)N[C@@H](CCC(N)=O)C(=O)N[C@@H]([C@@H](C)O)C(=O)N[C@@H](Cc2c[nH]c3ccccc23)C(=O)N[C@@H](CCC(N)=O)C(=O)N1)C(=O)N[C@@H](CC(N)=O)C(=O)NCC(N)=O`: the IC50 on Interleukin-23 receptor [1] fell in the range of 0.025 to 0.1 µM. Besides, in data set [2], the half-life at 20 µM is less than 1 h.

For `CC(=O)N[C@H](C(=O)N[C@@H](CCC(N)=O)C(=O)N[C@H](C(=O)N[C@@H](Cc1c[nH]c2ccccc12)C(=O)N[C@@H](CCC(N)=O)C(=O)N[C@H](C(=O)N[C@@H](Cc1ccc(O)cc1)C(=O)N[C@@H](Cc1c[nH]c2ccccc12)C(=O)N(C)[C@@H](CCCNC(=N)N)C(=O)N[C@@H](CCC(=O)O)C(=O)N[C@@H](CC(N)=O)C(=O)NCC(N)=O)C(C)(C)S)[C@@H](C)O)C(C)(C)S`, at Interleukin-23 receptor [1], the IC50 was greater than 30 µM. The half-life at 20 µM in data set [2] is 2 to 3 h.

`COc1ccc(CC[C@H](NC(=O)[C@@H]2CSCC[C@H](NC(C)=O)C(=O)N[C@@H](CCC(N)=O)C(=O)N[C@@H]([C@@H](C)O)C(=O)N[C@@H](Cc3c[nH]c4ccccc34)C(=O)N[C@@H](CCC(N)=O)C(=O)N2)C(=O)N[C@@H](Cc2ccc3ccccc3c2)C(=O)N[C@@](C)(CCCCN)C(=O)N[C@@H](CCCCNC(C)=O)C(=O)N[C@@H](CC(N)=O)C(=O)NCC(N)=O)cc1OC`: the IC50 on Interleukin-23 receptor [1] is greater than 1 µM. Further, in data set [2], the half-life at 20 µM was 3 to 6 h.

In turn, `CC(=O)N[C@H]1CCSC[C@@H](C(=O)N[C@@H](Cc2ccc(OCCN)cc2)C(=O)N[C@@H](Cc2c[nH]c3ccccc23)C(=O)N[C@@H](CCCN)C(=O)N[C@@H](CCC(=O)O)C(=O)N[C@@H](CC(N)=O)C(=O)NCC(N)=O)NC(=O)[C@H](CCC(N)=O)NC(=O)[C@H](Cc2c[nH]c3ccccc23)NC(=O)[C@H]([C@@H](C)O)NC(=O)[C@H](CCC(N)=O)NC1=O` returned an IC50 at Interleukin-23 receptor [1] of 0.025 to 0.1 µM. For the same compound, the half-life at 20 µM in data set [2] is less than 1 h.

At Interleukin-23 receptor [1], `CC(=O)N[C@H]1CCSC(C)(C)[C@@H](C(=O)N[C@@H](Cc2ccc(O)cc2)C(=O)N[C@@H](Cc2c[nH]c3ccccc23)C(=O)N[C@@H](CCC(C)C)C(=O)N[C@@H](CCC(=O)O)C(=O)N[C@@H](CC(N)=O)C(=O)NCC(N)=O)NC(=O)[C@H](CCC(N)=O)NC(=O)[C@H](Cc2c[nH]c3ccccc23)NC(=O)[C@H]([C@@H](C)O)NC(=O)[C@H](CCC(N)=O)NC1=O` (Ac-[Abu(4-yl)]QTWQ[Pen]YW[hLeu]ENG-NH2; thioether 1-6) displayed an IC50 greater than 1 µM. For the same compound, in data set [2], the half-life at 20 µM is less than 1 h.

For `COc1ccc(C[C@H](NC(=O)[C@@H]2CSCC[C@H](NC(C)=O)C(=O)N[C@@H](CCC(N)=O)C(=O)N[C@@H]([C@@H](C)O)C(=O)N[C@@H](Cc3c[nH]c4ccccc34)C(=O)N[C@@H](CCC(N)=O)C(=O)N2)C(=O)N[C@@H](Cc2ccc3ccccc3c2)C(=O)N[C@@H](CCCN)C(=O)N[C@@H](CCCCNC(C)=O)C(=O)N[C@@H](CC(N)=O)C(=O)NCC(N)=O)cc1`, at Interleukin-23 receptor [1], the IC50 was in the range of 0.1 to 1 µM. Further, the half-life at 20 µM in data set [2] was greater than 6 h.

With `CCCCCCCC[C@H](NC(=O)[C@H](Cc1ccc(OC)cc1)NC(=O)[C@@H]1CSCC[C@H](NC(C)=O)C(=O)N[C@@H](CCC(N)=O)C(=O)N[C@@H]([C@@H](C)O)C(=O)N[C@@H](Cc2c[nH]c3ccccc23)C(=O)N[C@@H](CCC(N)=O)C(=O)N1)C(=O)N[C@@](C)(CCCCN)C(=O)N[C@@H](CCCCNC(C)=O)C(=O)N[C@@H](CC(N)=O)C(=O)NCC(N)=O`, the IC50 on Interleukin-23 receptor [1] was determined as 10 µM. Besides, the half-life at 20 µM in data set [2] is 1 to 2 h.

As to `CC(=O)N[C@@H](CS)C(=O)N[C@@H](CCC(N)=O)C(=O)N[C@H](C(=O)N[C@@H](Cc1c[nH]c2ccccc12)C(=O)N[C@@H](CCC(N)=O)C(=O)N[C@@H](CS)C(=O)N[C@@H](Cc1ccc(O)cc1)C(=O)N[C@@H](Cc1c[nH]c2ccccc12)C(=O)N[C@@H](CCC(C)C)C(=O)N[C@@H](CCC(=O)O)C(=O)N[C@@H](CC(N)=O)C(=O)NCC(=O)N[C@@H](CCCNC(=N)N)C(N)=O)[C@@H](C)O`, the figures for the IC50 on Interleukin-23 receptor [1] and on Interleukin-23 receptor [3] were greater than 10 µM and greater than 1 µM, respectively.

Consider `CC(=O)N[C@@H](CS)C(=O)N[C@@H](C)C(=O)N[C@@H](CC(=O)O)C(=O)N[C@@H](Cc1c[nH]c2ccccc12)C(=O)N[C@H](C(=O)N[C@@H](CS)C(=O)N[C@@H](Cc1ccc(O)cc1)C(=O)N[C@@H](Cc1c[nH]c2ccccc12)C(=O)N[C@@H](Cc1cnc[nH]1)C(=O)N[C@H](C(=O)N[C@@H](Cc1ccccc1)C(=O)NCC(=O)N[C@H](CCCCN)C(=O)O)[C@@H](C)O)C(C)C`, for which the IC50 on Interleukin-23 receptor [1] and on Interleukin-23 receptor [3] was 0.1 to 1 µM each time.

In the case of `CC(=O)N[C@@H](CS)C(=O)N[C@H](C(=O)N[C@@H](CC(=O)O)C(=O)N[C@@H](Cc1c[nH]c2ccccc12)C(=O)N[C@@H](CCCCN)C(=O)N[C@@H](CS)C(=O)N[C@@H](Cc1ccc(O)cc1)C(=O)N[C@@H](Cc1c[nH]c2ccccc12)C(=O)N[C@@H](Cc1cnc[nH]1)C(=O)N[C@H](C(=O)N[C@@H](Cc1ccccc1)C(=O)NCC(N)=O)[C@@H](C)O)[C@@H](C)O`, the IC50 at Interleukin-23 receptor [1] and at Interleukin-23 receptor [3] was 0.1 to 1 µM each time.

On to `CC(=O)N[C@H](C(=O)N[C@@H](CCC(N)=O)C(=O)N[C@H](C(=O)N[C@@H](Cc1c[nH]c2ccccc12)C(=O)N[C@@H](CCC(N)=O)C(=O)N[C@H](C(=O)N[C@@H](Cc1ccc(OCCN)cc1)C(=O)N[C@@H](Cc1ccc2ccccc2c1)C(=O)N[C@@](C)(CCCCN)C(=O)N[C@@H](CCC(=O)O)C(=O)N[C@@H](CC(N)=O)C(=O)NCC(N)=O)C(C)(C)S)[C@@H](C)O)C(C)(C)S`, for which the IC50 on Interleukin-23 receptor [1] was 0.01 to 0.025 µM; on Interleukin-23 receptor [3], less than 0.01 µM.

Consider `COc1ccc(C[C@H](NC(=O)[C@@H](NC(=O)[C@H](CCC(N)=O)NC(=O)[C@H](Cc2c[nH]c3ccccc23)NC(=O)[C@@H](NC(=O)[C@H](CCC(N)=O)NC(=O)[C@@H](NC(C)=O)C(C)(C)S)[C@@H](C)O)C(C)(C)S)C(=O)N[C@@H](Cc2ccc3ccccc3c2)C(=O)N[C@@](C)(CCCN)C(=O)N[C@@H](CCCCNC(C)=O)C(=O)N[C@@H](CC(N)=O)C(=O)NCC(N)=O)cc1`, for which the IC50 lay within 0.1 to 1 µM at Interleukin-23 receptor [1] and 0.025 to 0.1 µM on Interleukin-23 receptor [3].

In the case of `CC(=O)N[C@H](C(=O)N[C@H](C(=O)N[C@H](C(=O)N[C@@H](Cc1c[nH]c2ccccc12)C(=O)N[C@@H](CCC(N)=O)C(=O)N[C@H](C(=O)N[C@@H](Cc1ccc(OCCN)cc1)C(=O)N[C@@H](Cc1ccc2ccccc2c1)C(=O)N[C@@](C)(CCCCN)C(=O)N[C@@H](CCC(=O)O)C(=O)N[C@@H](CC(N)=O)C(=O)NCC(N)=O)C(C)(C)S)[C@@H](C)O)[C@@H](C)O)C(C)(C)S`, the IC50 at Interleukin-23 receptor [1] was 0.01 to 0.025 µM; at Interleukin-23 receptor [3] it was less than 0.01 µM.
